Experimental data as given in paper PMC5003509 (Journal of Medicinal Chemistry, 2015).

Experiments:
[1] = In vivo pharmacokinetics in CD1 mice; conditions: male, CD1, mouse, plasma, iv, 10 mg/kg
[2] = Metabolic stability in mouse liver microsomes, glucuronidation; type: in vitro ADME; conditions: in the presence of UDPGA
[3] = Metabolic stability in mouse liver microsomes, CYP-mediated; type: in vitro ADME; conditions: cofactor for CYP-dependent oxidation
[4] = tested on: glycine receptor (strychnine sensitive); assay: Glycine receptor; type: binding; conditions: at 10 μM
[5] = target: recombinant human DAAO (Homo sapiens, UniProt P14920); assay: In vitro DAAO assay; type: biochemical
[6] = target: hERG channel (Homo sapiens, UniProt Q12809); assay: hERG channel assay; conditions: concentrations up to 25 μM
[7] = tested on: NMDA receptor (phencyclidine); assay: NMDA receptor; type: binding; conditions: at 10 μM
[8] = tested on: NMDA receptor (agonist); assay: NMDA receptor; type: binding; conditions: at 10 μM
[9] = tested on: NMDA receptor (MK801); assay: NMDA receptor; type: binding; conditions: at 10 μM
[10] = tested on: Salmonella typhimurium strain (TA100); assay: Ames test; type: cell-based; conditions: TA100, in the presence or absence of metabolic activation by S9 mixture
[11] = Effect on plasma pharmacokinetics of oral D-serine in mice; conditions: 11h (30 mg/kg, po) with D-serine (30 mg/kg, po)

recombinant human DAAO, sequence (P14920 whole entry): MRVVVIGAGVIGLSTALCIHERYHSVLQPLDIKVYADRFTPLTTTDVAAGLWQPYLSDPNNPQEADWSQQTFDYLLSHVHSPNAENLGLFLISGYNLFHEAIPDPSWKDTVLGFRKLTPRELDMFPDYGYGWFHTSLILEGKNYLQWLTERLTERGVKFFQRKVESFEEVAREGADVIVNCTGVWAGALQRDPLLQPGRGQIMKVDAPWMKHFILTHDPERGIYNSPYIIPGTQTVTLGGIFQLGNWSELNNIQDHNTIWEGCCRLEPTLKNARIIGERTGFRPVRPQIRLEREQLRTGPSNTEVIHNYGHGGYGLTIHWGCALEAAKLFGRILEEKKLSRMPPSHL
hERG channel, sequence (Q12809 whole entry): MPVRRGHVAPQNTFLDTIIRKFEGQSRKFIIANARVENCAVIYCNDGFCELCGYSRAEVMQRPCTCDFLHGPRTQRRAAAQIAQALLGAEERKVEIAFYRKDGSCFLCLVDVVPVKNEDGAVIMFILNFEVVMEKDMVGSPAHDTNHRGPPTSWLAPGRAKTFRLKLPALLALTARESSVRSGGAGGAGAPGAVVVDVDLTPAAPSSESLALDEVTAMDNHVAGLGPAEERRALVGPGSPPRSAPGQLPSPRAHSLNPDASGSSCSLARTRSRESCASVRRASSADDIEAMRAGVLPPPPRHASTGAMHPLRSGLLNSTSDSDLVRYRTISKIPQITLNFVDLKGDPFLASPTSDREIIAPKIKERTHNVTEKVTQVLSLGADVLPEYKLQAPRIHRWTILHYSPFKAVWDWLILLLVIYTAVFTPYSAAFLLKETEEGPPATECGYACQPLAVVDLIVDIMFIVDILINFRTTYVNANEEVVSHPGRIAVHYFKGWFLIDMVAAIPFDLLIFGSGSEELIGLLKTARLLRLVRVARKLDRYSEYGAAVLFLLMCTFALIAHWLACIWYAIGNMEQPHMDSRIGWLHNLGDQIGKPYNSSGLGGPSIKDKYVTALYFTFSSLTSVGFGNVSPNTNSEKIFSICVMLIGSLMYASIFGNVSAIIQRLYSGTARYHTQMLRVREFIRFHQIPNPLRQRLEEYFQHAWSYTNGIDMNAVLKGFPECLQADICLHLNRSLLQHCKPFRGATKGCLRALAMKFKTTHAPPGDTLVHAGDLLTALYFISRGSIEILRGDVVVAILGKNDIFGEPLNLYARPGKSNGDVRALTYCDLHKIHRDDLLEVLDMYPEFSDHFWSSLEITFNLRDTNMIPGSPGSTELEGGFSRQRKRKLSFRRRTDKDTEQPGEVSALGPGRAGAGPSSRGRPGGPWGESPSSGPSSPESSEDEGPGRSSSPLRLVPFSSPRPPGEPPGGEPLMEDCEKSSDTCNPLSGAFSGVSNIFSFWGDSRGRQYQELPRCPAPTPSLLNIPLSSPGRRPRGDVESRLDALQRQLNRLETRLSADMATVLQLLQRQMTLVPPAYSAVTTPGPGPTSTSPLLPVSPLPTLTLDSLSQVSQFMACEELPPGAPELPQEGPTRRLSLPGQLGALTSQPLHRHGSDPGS

O=c1[nH]nc(CCc2cc(F)cc(F)c2)cc1O [8b, reference compound]
AUC(0-t) [1]: 12700 ng·h/mL | glucuronidation in mouse liver microsomes [2]: some resistance to glucuronidation

O=c1[nH]c(=O)n(CCc2ccccc2)nc1O [11e, 6-Hydroxy-2-phenethyl-1,2,4-triazine-3,5(2H,4H)-dione]
glucuronidation in mouse liver microsomes [2]: completely resistant to glucuronidation | stability in mouse liver microsomes in the presence of NADPH [3]: stable

O=c1[nH]c(=O)n(Cc2cccc3ccccc23)nc1O [11h, 6-Hydroxy-2-(naphthalen-1-ylmethyl)-1,2,4-triazine-3,5(2H,4H)-dione]
inhibition, glycine receptor (strychnine sensitive) [4]: ≤5% inhibition at 10 μM | effect of FAD concentration on IC50 ([5]; escalation of FAD concentration from 10 to 100 μM): did not affect IC50 value | mode of inhibition ([5]; versus D-serine, double reciprocal plot): competitive inhibition | hERG channel inhibition [6]: no inhibition at concentrations up to 25 μM | inhibition, NMDA receptor (phencyclidine) [7]: ≤5% inhibition at 10 μM | inhibition, NMDA receptor (agonist) [8]: ≤5% inhibition at 10 μM | inhibition, NMDA receptor (MK801) [9]: ≤5% inhibition at 10 μM | mutagenicity [10]: No evidence of mutagenicity | glucuronidation in mouse liver microsomes [2]: completely resistant to glucuronidation | effect on plasma clearance of D-serine [11]: substantially reduced | stability in mouse liver microsomes in the presence of NADPH [3]: stable

O=c1cc(CSc2ccc(Cl)c(Cl)c2)occ1O [compound 7, reference compound]
glucuronidation in mouse liver microsomes [2]: extensively glucuronidated

O=c1[nH]c(=S)n(CCc2ccccc2)nc1O [compound 30, 6-Hydroxy-2-phenethyl-3-thioxo-3,4-dihydro-1,2,4-triazin-5(2H)-one]
glucuronidation in mouse liver microsomes [2]: metabolically stable against glucuronidation

O=c1[nH]c(=O)n(CCc2ccccc2)cc1O [compound 32, 5-Hydroxy-1-phenethylpyrimidine-2,4(1H,3H)-dione]
glucuronidation in mouse liver microsomes [2]: fully glucuronidated within 60 min
